Data on one compound can be found in patent publication US20250206754A1, “PAN-CHEMOKINE ANTAGONISTS FOR USE IN TREATING CANCER AND IMMUNE DISORDERS” ("Micar Innovation" LTD., priority 2022, published 2025).

The target of one test is T1, CCR7 (Homo sapiens, UniProt P32248).
T1 construct: expressed in transfected cells
T1 sequence (P32248 25-378): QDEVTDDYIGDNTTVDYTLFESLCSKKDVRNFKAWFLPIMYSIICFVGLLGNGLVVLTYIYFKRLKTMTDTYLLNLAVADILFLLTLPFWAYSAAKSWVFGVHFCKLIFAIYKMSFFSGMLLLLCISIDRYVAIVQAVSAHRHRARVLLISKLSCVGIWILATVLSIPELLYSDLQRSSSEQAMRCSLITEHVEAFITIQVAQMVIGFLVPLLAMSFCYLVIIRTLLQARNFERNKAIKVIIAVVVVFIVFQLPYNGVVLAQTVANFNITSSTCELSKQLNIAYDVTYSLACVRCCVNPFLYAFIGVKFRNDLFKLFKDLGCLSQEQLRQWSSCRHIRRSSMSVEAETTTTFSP
As to the kind of experiment: ERK assay, CCR7. In kind it is cell-based. The procedure:
The Kb values are also retrieved. […] Finally, to make it more clear the second messenger output for Hit1 and confirm the nature of β-arrestin bias GTPγS and ERK assays were also performed. […] Considering that the ERK is directly related to β-arrestin path and binds directly to the arrestin it was concluded that this compound is β-arrestin biased (Table 1 and FIGS. 3A and 3B). Finally, several other potential hits were identified but the activities were in a range of 25-35% at 100 μM concentration and they were discarded in this disclosure.
Current diversity data provide also several additional experimental evidences which are against colloid aggregation activity dependence: • Almost identical steep dose-response curves have been observed for the natural CCL19 and CCL21 agonists. Thus, it seems that this is not unique to Hit 1 case. • Hill coefficient of 1.5 in the ERK experiments and no steep slope (FIG. 3A). Moreover, the ERK dose-response curve looks like a typical single antagonist ligand. • At the same conditions as in the ERK assay the compound was in particular not active in the GTPγS assay up to 100 μM (FIG. 3B). […]

Another test deals with β-lactamase. As to the kind of experiment: β-lactamase enzymatic activity counterscreen (colloid aggregation). The class given is biochemical. Conditions: 50 μM. How it is done: To examine the colloid aggregation possibility a β-lactamase enzymatic activity counterscreen assay was performed, which is the commonly adopted tool for detection of such properties of the compounds.
A general note: The purpose of a counterscreen is to sort out artefacts and off-target activity.

Another test deals with T2, CCR3 (Homo sapiens, UniProt P51677).
T2 sequence (P51677 1-355): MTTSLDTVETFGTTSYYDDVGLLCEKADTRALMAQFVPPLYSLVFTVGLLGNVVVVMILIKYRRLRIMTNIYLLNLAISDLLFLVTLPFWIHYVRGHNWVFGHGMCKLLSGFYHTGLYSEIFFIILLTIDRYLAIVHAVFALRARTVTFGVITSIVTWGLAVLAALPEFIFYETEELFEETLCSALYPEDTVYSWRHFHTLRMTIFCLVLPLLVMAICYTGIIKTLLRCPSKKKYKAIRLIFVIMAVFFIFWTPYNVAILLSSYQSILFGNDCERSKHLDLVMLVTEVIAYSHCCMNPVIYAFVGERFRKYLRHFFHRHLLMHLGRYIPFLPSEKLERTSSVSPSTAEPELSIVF
As to the kind of experiment: β-arrestin selectivity assay, CCR3. The class given is cell-based.

Broadly, the IC50 is the concentration at which inhibition is half-maximal. A word on the Hill coefficient: it is the slope factor of the fitted curve. Regarding `NC(=O)c1ccccc1Oc1ncnc2sc(-c3ccccc3)cc12` [Hit 1, 2-({6-phenylthieno[2,3-d]pyrimidin-4-yl}oxy)benzamide], the IC50 amounted to 18.1 µM against CCR7 (ERK assay) and 4.4 µM on CCR3. Moreover, the Hill coefficient at CCR7 (ERK experiments) is on record as 1.5; at CCR3, 2.6. The “activity on β-lactamase” value in the test on β-lactamase is −18%.
